From patent publication US8058475B2, “Substituted cyclohexylmethyl compounds” (Gruenenthal GmbH, priority 2005, dated 2011) come the findings set out here.

The term inhibition denotes the relative decrease from the control value, in per cent. What is called Ki is the equilibrium dissociation constant of an inhibitor or competing ligand from its target.

The assay deals with human μ-opiate receptor (Homo sapiens, UniProt P35372). The assay is described as follows: Affinity for the human μ-opiate receptor ([3H]-naloxone displacement, SPA, CHO-K1 membrane preparation). Type of assay: binding. Conditions: for inhibition at 1 µM: read-out: μ-Opioid receptor, % inhibition [1 μM]; for Ki: read-out: μ-Opioid receptor, Ki.

The structures appear in SMILES notation. Read-outs that look alike come from different tables or passages of the source.

Chain of human μ-opiate receptor (P35372 whole entry): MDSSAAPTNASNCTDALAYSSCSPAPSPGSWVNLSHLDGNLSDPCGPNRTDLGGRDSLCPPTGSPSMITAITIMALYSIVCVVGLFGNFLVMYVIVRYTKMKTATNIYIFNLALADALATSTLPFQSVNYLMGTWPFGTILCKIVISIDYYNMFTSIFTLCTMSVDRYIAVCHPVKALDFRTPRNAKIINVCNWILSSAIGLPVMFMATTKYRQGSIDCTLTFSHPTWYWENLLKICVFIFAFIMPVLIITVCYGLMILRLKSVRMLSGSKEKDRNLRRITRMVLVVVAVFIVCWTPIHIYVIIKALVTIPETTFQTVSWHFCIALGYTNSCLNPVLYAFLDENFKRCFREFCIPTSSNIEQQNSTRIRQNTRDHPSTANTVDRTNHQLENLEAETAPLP

On to `CN(C)C(c1ccccc1)C1CCC(CCNC(=O)c2cncc(Br)c2)CC1` (centres unmarked) [compound 473, 5-bromo-N-{2-[4-(dimethylamino-phenyl-methyl)-cyclohexyl]-ethyl}-nicotinamide], for which the inhibition at 1 µM came out at 91% and the Ki turned out to be 18 nM.
For `CN(C)C(c1cccs1)C1CCC(CNC(=O)CC(C)(C)C)CC1` (centres unmarked) [compound 301, N-[4-(dimethylamino-thiophen-2-yl-methyl)-cyclohexylmethyl]-3,3-dimethyl-butyramide] the same measures were 99% and 2.7 nM.
For `CN(C)C(c1ccccc1)C1CCC(CNC(=O)CC(C)(C)C)CC1` (centres unmarked) [compound 298, N-[4-(dimethylamino-phenyl-methyl)-cyclohexylmethyl]-3,3-dimethyl-butyramide] the same measures were 100% and 4 nM.
On the same counts, the results for `CN(C)C(c1cccc(F)c1)C1CCC(NC(=O)c2cc(Cl)cc(Cl)c2)CC1` (centres unmarked) [compound 243, 3,5-dichloro-N-{4-[dimethylamino-(3-fluoro-phenyl)-methyl]-cyclohexyl}-benzamide] are 82% and 25 nM.
For the molecule `CCSc1ncccc1C(=O)NCC1CCC(C(c2ccc(Cl)cc2)N(C)C)CC1` (centres unmarked) [compound 351, N-{4-[(4-chloro-phenyl)-dimethylamino-methyl]-cyclohexylmethyl}-2-ethyl-sulfanyl-nicotinamide], the “μ-Opioid receptor, % inhibition [1 μM]” value stood at 89% and the Ki is 58 nM.
In the case of `COc1cccc(CC(=O)NCC2CCC(C(c3ccc(Cl)cc3)N(C)C)CC2)c1` (centres unmarked) [compound 320, N-{4-[(4-chloro-phenyl)-dimethylamino-methyl]-cyclohexylmethyl}-2-(3-methoxy-phenyl)-acetamide], the inhibition at 1 µM was determined as 95% and the Ki stood at 28 nM.
Turning to `CN(C)C(c1cccs1)C1CCC(NC(=O)c2cccnc2Sc2ccc(Cl)cc2)CC1` (centres unmarked) [compound 218, 2-(4-chloro-phenylsulfanyl)-N-[4-(dimethylamino-thiophen-2-yl-methyl)-cyclohexyl]-nicotinamide], the inhibition at 1 µM stood at 89%.
Regarding `CN(C)C(c1ccc(F)cc1)C1CCC(CCNC(=O)c2cccc(Cl)c2)CC1` (single isomer, unassigned) [compound 423, 3-chloro-N-(2-{4-[dimethylamino-(4-fluoro-phenyl)-methyl]-cyclohexyl}-ethyl)-benzamide], the “μ-Opioid receptor, % inhibition [1 μM]” value is listed as 83% and the Ki turned out to be 15 nM.
As to `CN(C)C(c1ccccc1)C1CCC(CNC(=O)c2ccc(F)c(F)c2)CC1` (single isomer, unassigned) [compound 357, N-[4-(dimethylamino-phenyl-methyl)-cyclohexylmethyl]-3,4-difluoro-benzamide], the Ki is 60 nM. Besides, the “μ-Opioid receptor, % inhibition [1 μM]” value (1 µM) came to 86%.
For `CN(C)C(c1cccs1)C1CCC(CNC(=O)C(c2ccccc2)c2ccccc2)CC1` (centres unmarked) [compound 297, N-[4-(dimethylamino-thiophen-2-yl-methyl)-cyclohexylmethyl]-2,2-diphenyl-acetamide], the inhibition at 1 µM came out at 100% and the Ki was 4 nM.
With `CN(C)C(c1cccc(F)c1)C1CCC(NC(=O)Cc2ccc(Cl)cc2)CC1` (centres unmarked) [compound 274, 2-(4-chloro-phenyl)-N-{4-[dimethylamino-(3-fluoro-phenyl)-methyl]-cyclohexyl}-acetamide], the inhibition at 1 µM is 74% and the Ki was determined as 99 nM.
On the same counts, the results for `CSc1ncccc1C(=O)NCC1CCC(C(c2ccccc2)N(C)C)CC1` (centres unmarked) [compound 299, N-[4-(dimethylamino-phenyl-methyl)-cyclohexylmethyl]-2-methylsulfanyl-nicotinamide] are 100% and 1 nM.
For the molecule `Cc1c(S(=O)(=O)c2ccc(Cl)cc2)csc1C(=O)NC1CCC(C(c2ccccc2)N(C)C)CC1` (centres unmarked) [compound 253, 4-(4-chloro-benzenesulfonyl)-3-methyl-thiophene-2-carboxylic acid [4-(dimethylamino-phenyl-methyl)-cyclohexyl]-amide], the Ki turned out to be 79 nM. Further, the “μ-Opioid receptor, % inhibition [1 μM]” value (1 µM) is recorded as 80%.
Turning to `Cc1cc(C(=O)NC2CCC(C(c3ccccc3)N(C)C)CC2)n(C(C)(C)C)n1` (centres unmarked) [compound 223, 2-tert-butyl-5-methyl-2H-pyrazole-3-carboxylic acid [4-(dimethylamino-phenyl-methyl)-cyclohexyl]-amide], the inhibition at 1 µM amounted to 88% and the Ki was 20 nM.
On the same counts, the results for `CN(C)C(c1ccc(Cl)cc1)C1CCC(CNC(=O)CC(C)(C)C)CC1` (centres unmarked) [compound 309, N-{4-[(4-chloro-phenyl)-dimethylamino-methyl]-cyclohexylmethyl}-3,3-dimethyl-butyramide] are 98% and 5.6 nM.
On the same counts, the results for `CN(C)C(c1ccccc1)C1CCC(NC(=O)C23CC4CC(CC(C4)C2)C3)CC1` (centres unmarked) [compound 236, adamantane-1-carboxylic acid [4-(dimethylamino-phenyl-methyl)-cyclohexyl]-amide] are 83% and 63 nM.
On the same counts, the results for `CN(C)C(c1ccccc1)C1CCC(NC(=O)c2cccc(C#N)c2)CC1` (centres unmarked) [compound 261, 3-cyano-N-[4-(dimethylamino-phenyl-methyl)-cyclohexyl]-benzamide] are 78% and 130 nM.
Take `CN(C)C(CCc1ccccc1)C1CCC(NC(=O)c2cccc(Br)c2)CC1` (centres unmarked) [compound 277, 3-bromo-N-[4-(1-dimethylamino-3-phenyl-propyl)-cyclohexyl]-benzamide]: the inhibition at 1 µM was determined as 74% and the Ki was 74 nM.
For `CCC(C(=O)NC1CCC(C(c2ccccc2)N(C)C)CC1)c1ccccc1` (single isomer, unassigned) [compound 234, N-[4-(dimethylamino-phenyl-methyl)-cyclohexyl]-2-phenyl-butyramide] the same measures were 84% and 46 nM.
In the case of `Cc1nc(-c2ccc3c(c2)CCO3)sc1C(=O)NC1CCC(C(c2cccs2)N(C)C)CC1` (centres unmarked) [compound 283, 2-(2,3-dihydro-benzofuran-5-yl)-4-methyl-thiazole-5-carboxylic acid [4-(dimethylamino-thiophen-2-yl-methyl)-cyclohexyl]-amide], the inhibition at 1 µM is 72% and the Ki amounted to 150 nM.
Consider `CN(C)C(c1cccc(F)c1)C1CCC(CNC(=O)c2ccc(F)c(C(F)(F)F)c2)CC1` (centres unmarked) [compound 350, N-{4-[dimethylamino-(3-fluoro-phenyl)-methyl]-cyclohexylmethyl}-4-fluoro-3-trifluoromethyl-benzamide], for which the inhibition at 1 µM was 89% and the Ki amounted to 37 nM.
On the same counts, the results for `CN(C)C(c1ccccc1)C1CCC(CNC(=O)c2cccc(Cl)c2)CC1` (centres unmarked) [compound 331, 3-chloro-N-[4-(dimethylamino-phenyl-methyl)-cyclohexylmethyl]-benzamide] are 93% and 11 nM.
With `CN(C)C(c1ccccc1)C1CCC(NC(=O)c2csc(-c3ccc4c(c3)CCO4)n2)CC1` (centres unmarked) [compound 289, 2-(2,3-dihydro-benzofuran-5-yl)-thiazole-4-carboxylic acid [4-(dimethylamino-phenyl-methyl)-cyclohexyl]-amide], the inhibition at 1 µM is 70% and the Ki was 78 nM.
On the same counts, the results for `CN(C)C(c1cccc(F)c1)C1CCC(NC(=O)c2cc(F)cc(F)c2)CC1` (centres unmarked) [compound 204, N-{4-[dimethylamino-(3-fluoro-phenyl)-methyl]-cyclohexyl}-3,5-difluoro-benzamide] are 94% and 18 nM.
On the same counts, the results for `CN(C)C(c1cccs1)C1CCC(NC(=O)c2cccs2)CC1` (centres unmarked) [compound 193, thiophene-2-carboxylic acid [4-(dimethylamino-thiophen-2-yl-methyl)-cyclohexyl]-amide] are 96% and 23 nM.
On to `CN(C)C(c1cccs1)C1CCC(CNC(=O)Cc2cccs2)CC1` (centres unmarked) [compound 291, N-[4-(dimethylamino-thiophen-2-yl-methyl)-cyclohexylmethyl]-2-thiophen-2-yl-acetamide], for which the inhibition at 1 µM stood at 102%.
Turning to `CN(C)C(c1cccc(F)c1)C1CCC(CCNC(=O)c2ccc(Cl)cc2)CC1` (centres unmarked) [compound 406, 4-chloro-N-(2-{4-[dimethylamino-(3-fluoro-phenyl)-methyl]-cyclohexyl}-ethyl)-benzamide], the inhibition at 1 µM is 81% and the Ki amounted to 40 nM.
For `CN(C)C(c1cccs1)C1CCC(NC(=O)c2cccnc2Oc2ccc(Cl)cc2)CC1` (centres unmarked) [compound 257, 2-(4-chloro-phenoxy)-N-[4-(dimethylamino-thiophen-2-yl-methyl)-cyclohexyl]-nicotinamide] the same measures were 79% and 81 nM.
Turning to `CN(C)C(c1ccc(F)cc1)C1CCC(CNC(=O)C2(c3ccc(Cl)cc3)CCCC2)CC1` (centres unmarked) [compound 370, 1-(4-chloro-phenyl)-cyclopentane-carboxylic acid {4-[dimethylamino-(4-fluoro-phenyl)-methyl]-cyclohexylmethyl}-amide], the inhibition at 1 µM turned out to be 84% and the Ki is 81 nM.
For `CCCC(=O)N(CCc1c[nH]c2ccccc12)C1CCC(C(c2ccccc2)N(C)C)CC1` (centres unmarked) [compound 181, N-(2-(1H-indol-3-yl)ethyl)-N-(4-((dimethylamino)(phenyl)methyl)-cyclohexyl)butyramide] the same measures were 95% and 3.9 nM.
As to `CN(C)C(c1cccs1)C1CCC(CCNC(=O)c2ccc(F)c(F)c2)CC1` (centres unmarked) [compound 446, N-{2-[4-(dimethylamino-thiophen-2-yl-methyl)-cyclohexyl]-ethyl}-3,4-difluoro-benzamide], the inhibition at 1 µM is 99% and the Ki amounted to 6.4 nM.
For `CN(C)C(c1ccccc1)C1CCC(CCNC(=O)c2ccc(F)cc2)CC1` (centres unmarked) [compound 407, N-{2-[4-(dimethylamino-phenyl-methyl)-cyclohexyl]-ethyl}-4-fluoro-benzamide] the same measures were 87% and 48 nM.
